Columns and labels:
[1] = target: TRPM2 (Mus musculus, UniProt Q91YD4); test: whole-cell patch clamp with intracellular ADPR; format: cell-based
[2] = target: TRPM2 (Rattus norvegicus, UniProt E9PTA2); test: whole-cell patch clamp with intracellular ADPR; format: cell-based
TRPM2 (Rattus norvegicus, UniProt E9PTA2), sequence (E9PTA2 whole entry): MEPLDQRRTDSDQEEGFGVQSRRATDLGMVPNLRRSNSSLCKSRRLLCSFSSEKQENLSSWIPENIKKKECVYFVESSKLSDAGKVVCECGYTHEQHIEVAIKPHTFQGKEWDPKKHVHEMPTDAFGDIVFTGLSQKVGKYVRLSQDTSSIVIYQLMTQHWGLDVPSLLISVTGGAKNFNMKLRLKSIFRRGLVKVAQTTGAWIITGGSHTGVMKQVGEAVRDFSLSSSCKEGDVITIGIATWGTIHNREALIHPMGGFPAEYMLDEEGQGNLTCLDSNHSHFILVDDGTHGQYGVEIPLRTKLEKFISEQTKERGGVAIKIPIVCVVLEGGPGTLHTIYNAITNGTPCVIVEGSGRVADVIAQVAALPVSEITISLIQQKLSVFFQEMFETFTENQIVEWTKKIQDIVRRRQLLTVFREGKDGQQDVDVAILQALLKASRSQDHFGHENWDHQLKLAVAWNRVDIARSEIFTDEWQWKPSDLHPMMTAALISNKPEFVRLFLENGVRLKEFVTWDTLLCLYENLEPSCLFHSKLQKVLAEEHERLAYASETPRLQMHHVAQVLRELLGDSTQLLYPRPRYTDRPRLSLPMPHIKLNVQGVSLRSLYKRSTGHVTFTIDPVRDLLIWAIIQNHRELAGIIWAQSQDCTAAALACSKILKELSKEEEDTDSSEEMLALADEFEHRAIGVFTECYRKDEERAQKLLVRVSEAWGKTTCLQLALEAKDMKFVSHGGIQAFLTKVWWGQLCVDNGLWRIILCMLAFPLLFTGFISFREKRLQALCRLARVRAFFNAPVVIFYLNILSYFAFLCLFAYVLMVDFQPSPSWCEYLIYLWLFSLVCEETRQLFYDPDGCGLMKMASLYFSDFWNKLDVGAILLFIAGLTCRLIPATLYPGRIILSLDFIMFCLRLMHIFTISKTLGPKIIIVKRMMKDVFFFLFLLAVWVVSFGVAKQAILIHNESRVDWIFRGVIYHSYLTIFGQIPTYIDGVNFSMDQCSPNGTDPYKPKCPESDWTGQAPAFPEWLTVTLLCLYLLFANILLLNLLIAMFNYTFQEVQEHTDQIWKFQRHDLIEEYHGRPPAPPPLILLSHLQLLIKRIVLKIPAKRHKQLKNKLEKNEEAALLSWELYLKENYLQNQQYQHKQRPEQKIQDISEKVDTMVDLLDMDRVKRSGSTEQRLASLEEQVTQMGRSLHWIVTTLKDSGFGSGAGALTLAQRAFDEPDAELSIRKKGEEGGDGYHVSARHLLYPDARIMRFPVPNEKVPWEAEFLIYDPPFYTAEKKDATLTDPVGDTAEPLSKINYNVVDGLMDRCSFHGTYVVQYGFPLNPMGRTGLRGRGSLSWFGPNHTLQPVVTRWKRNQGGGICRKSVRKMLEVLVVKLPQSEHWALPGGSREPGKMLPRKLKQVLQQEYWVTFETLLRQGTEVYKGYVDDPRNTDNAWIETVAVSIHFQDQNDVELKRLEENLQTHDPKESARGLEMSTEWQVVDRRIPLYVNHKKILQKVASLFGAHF

TRPM2 (Mus musculus, UniProt Q91YD4), sequence (Q91YD4 whole entry): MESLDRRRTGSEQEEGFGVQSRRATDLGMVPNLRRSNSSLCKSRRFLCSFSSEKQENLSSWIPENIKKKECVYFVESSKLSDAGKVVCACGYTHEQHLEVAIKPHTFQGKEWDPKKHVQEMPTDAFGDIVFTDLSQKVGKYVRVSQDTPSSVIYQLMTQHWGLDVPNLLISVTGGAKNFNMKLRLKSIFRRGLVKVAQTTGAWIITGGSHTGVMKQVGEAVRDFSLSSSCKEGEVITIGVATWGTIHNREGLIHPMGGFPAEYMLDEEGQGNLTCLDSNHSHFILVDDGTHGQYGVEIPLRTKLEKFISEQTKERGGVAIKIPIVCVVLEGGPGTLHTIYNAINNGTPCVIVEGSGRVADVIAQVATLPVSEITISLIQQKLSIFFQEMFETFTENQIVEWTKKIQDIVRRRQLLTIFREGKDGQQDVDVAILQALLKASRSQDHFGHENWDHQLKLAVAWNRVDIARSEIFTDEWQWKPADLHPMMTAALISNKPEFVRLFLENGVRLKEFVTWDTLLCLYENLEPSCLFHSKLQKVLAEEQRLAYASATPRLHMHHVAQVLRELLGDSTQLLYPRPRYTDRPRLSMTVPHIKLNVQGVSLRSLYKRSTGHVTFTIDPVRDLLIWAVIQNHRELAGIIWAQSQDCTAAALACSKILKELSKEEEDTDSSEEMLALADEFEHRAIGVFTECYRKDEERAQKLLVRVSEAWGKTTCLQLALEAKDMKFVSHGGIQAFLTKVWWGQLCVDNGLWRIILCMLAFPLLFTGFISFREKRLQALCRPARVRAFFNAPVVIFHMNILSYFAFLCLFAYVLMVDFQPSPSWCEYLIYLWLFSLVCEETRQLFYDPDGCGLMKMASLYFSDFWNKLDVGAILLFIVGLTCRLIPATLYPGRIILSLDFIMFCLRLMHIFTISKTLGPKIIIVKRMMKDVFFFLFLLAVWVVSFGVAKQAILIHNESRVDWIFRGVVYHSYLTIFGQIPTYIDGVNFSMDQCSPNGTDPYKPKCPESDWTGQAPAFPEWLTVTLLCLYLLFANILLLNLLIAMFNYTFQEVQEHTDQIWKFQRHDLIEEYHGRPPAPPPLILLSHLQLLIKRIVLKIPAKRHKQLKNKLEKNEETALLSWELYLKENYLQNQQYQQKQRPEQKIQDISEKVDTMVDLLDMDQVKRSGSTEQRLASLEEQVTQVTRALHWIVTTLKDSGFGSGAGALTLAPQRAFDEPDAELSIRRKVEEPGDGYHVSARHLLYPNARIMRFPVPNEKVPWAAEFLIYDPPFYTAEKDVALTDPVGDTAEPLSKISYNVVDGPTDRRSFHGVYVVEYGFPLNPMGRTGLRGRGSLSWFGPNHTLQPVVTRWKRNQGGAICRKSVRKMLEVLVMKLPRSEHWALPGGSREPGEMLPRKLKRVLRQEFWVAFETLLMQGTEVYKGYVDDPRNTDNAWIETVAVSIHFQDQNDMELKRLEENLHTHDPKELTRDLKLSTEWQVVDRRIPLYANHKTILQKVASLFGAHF

SMILES: Nc1ncnc2c1ncn2[C@@H]1O[C@H](COP(=O)(O)OP(=O)(O)OC[C@H]2OC(O)[C@H](O)[C@@H]2O)[C@@H](O)[C@H]1O (some centres unmarked) [ADPR]
- EC50 [1]: 360 µM
- EC50 [2]: 110 µM
